In patent US6352977B1, “Substituted β-alanines” (Aventis Pharma Limited, priority 1998, dated 2002):

melting point | SMILES
73 to 76 °C | COc1cc(CC(=O)N(C)CC(=O)N(CCCN2CCCC2=O)CCC(=O)O)ccc1NC(=O)Nc1ccccc1C
183 to 187 °C | COc1cc(CC(=O)N(C)CC(=O)N(CCC(=O)O)Cc2ccc(OC)c(OC)c2)ccc1NC(=O)Nc1ccccc1C
